Laboratory results published in patent publication US7417027B2, “Linear and cyclic melanocortin receptor-specific peptides” (Palatin Technologies, Inc., priority 2001, dated 2008).

Experiments:
hMC5-R = target: T1, hMC5-R (Homo sapiens, UniProt P33032); assay: Competitive inhibition binding assay, 125I-NDP-alpha-MSH, hMC5-R membranes
T1 construct: expressed in transfected cells

MC4-R [1] = target: T2, MC4-R (Homo sapiens, UniProt P32245); assay: Functional evaluation: intracellular cAMP accumulation in HEK-293 cells expressing MC4-R (agonist/antagonist status); assay type: cell-based; set-up: expressed in transfected cells; host or cells: HEK-293; conditions: with or without alpha-MSH, 1 hour at 37° C
T2 sequence (P32245 whole entry): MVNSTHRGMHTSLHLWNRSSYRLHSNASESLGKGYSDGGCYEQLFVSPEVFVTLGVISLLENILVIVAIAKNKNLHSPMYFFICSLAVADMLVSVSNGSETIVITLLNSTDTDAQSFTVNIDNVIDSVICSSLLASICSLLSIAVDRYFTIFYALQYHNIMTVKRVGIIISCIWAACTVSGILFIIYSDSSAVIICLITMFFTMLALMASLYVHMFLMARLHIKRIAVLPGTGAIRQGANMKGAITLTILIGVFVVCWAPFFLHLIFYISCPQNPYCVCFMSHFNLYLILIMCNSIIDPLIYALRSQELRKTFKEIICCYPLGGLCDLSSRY
Method: The Ki (nM) of certain peptides were determined, as was the agonist/antagonist status with respect to MC4-R. Functional evaluation of peptides at MC4-R was performed by measuring the accumulation of intracellular cAMP in HEK-293 cells expressing MC4-R. Antagonistic activity was determined by measuring the inhibition of α-MSH-induced cAMP levels following exposure to the compounds. Cells, suspended in Earle's Balanced Salt Solution containing 10 mM HEPES, pH 7.5, 5 mM MgCl2, 1 mM glutamine, 0.1% albumin and 0.6 mM 3-isobutyl-1-methyl-xanthine, a phosphodiesterase inhibitor, were plated in 96 well plates at a density of 0.5×10^5 cells per well. Cells were incubated with the test peptides in the presence or absence of α-MSH for 1 hour at 37° C. cAMP levels were measured by EIA (Amersham) in the cell lysates. Data analysis and EC50 values were determined using nonlinear regression analysis with Prism Graph-Pad software.

[2] = Food intake and body weight change in male Sprague-Dawley rats; assay type: in vivo, rat; conditions: for average daily body weight gain / average daily body weight lost: saline animals gained 4 g
Method: Food intake and body weight change was evaluated for selected peptides. Male Sprague-Dawley rats weighing ˜300 g at the beginning of the experiment were kept on a 12 hour on/of light cycle. Lights out was adjusted to 12:00 p.m. to allow for dosing just prior to the start of their dark period. Rats (12/group) were fed powdered chow and water ad libitum. For 1 week before treatment, 24-hour food intake and body weight change was recorded to assess a baseline for the group during vehicle treatment. The rats were dosed ICV, IV, SC or IP on day 0 and food intake and body weight measured daily for 1 week. Animals were dosed once per week for up to 6 weeks and their food intake and daily weight changed compared to their baseline. FIGS. 3, 4 and 5 illustrate results of different peptides at different doses and by varying routes of administration.

hMC3-R = target: T3, hMC3-R (Homo sapiens, UniProt P41968); assay: Competitive inhibition binding assay, 125I-NDP-alpha-MSH, hMC3-R membranes
T3 construct: expressed in transfected cells
T3 sequence (P41968 whole entry): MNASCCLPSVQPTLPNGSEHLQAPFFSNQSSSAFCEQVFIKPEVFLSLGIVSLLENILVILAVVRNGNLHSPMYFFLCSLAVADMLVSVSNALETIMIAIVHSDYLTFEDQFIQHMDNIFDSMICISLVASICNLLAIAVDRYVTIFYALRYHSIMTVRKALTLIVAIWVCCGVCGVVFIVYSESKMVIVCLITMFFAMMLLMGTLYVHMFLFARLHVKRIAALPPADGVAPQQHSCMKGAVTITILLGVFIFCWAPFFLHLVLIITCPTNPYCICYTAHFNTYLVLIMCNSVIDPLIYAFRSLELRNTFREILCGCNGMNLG

MC1-R = MC1-R (Mus musculus, UniProt Q01727); assay: Competitive inhibition binding assay, 125I-NDP-alpha-MSH, B-16 mouse melanoma cell membranes; conditions: B-16 cells; read-out: Ki MC-1 B-16
MC1-R, sequence (Q01727 whole entry): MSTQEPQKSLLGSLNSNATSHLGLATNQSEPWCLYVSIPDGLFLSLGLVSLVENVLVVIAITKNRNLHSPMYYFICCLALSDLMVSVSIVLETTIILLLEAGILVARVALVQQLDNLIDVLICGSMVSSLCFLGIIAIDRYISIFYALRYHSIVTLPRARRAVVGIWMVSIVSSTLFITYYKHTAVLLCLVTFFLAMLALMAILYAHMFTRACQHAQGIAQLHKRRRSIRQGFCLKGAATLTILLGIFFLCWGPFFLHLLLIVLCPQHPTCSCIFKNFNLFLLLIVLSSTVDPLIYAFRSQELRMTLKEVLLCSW

[3] = Conditioned taste aversion in rats; assay type: in vivo, rat; conditions: IP 1500 μg/kg, saccharin water intake day 1 vs day 3, FIG. 6
Method: Conditioned taste aversion was evaluated in rats using selected peptides. Male Sprague-Dawley rats weighing ˜300 g were kept on a 12 hour on/of light cycle. Lights out was adjusted to 12:00 p.m. with food ad libitum. Animals were trained to be accustomed to 30 minutes of access to water per day. On day 1 of the experiment, rats were given 30 minutes of access to water containing 0.15% saccharin immediately prior to being dosed ICV, IV or IP with compound. On day 2 they were given plain water for the appointed time. On day 3 the rats were given saccharin-containing water again. The amount of fluid these animals consumed on day 1 and day 3 was compared. Reduced intake on day 3 indicates a conditioned taste aversion due to illness induced by drug treatment on day 1.

[4] = Penile erection induction in male rats; assay type: in vivo, rat; conditions: male Sprague-Dawley rats; iv, varying quantities; 30 minutes observation; FIG. 2
Method: The ability of compounds to induce penile erection (PE) in male rats was evaluated with selected peptides. Male Sprague-Dawley rats weighing 200-250 g were kept on a 12 hour on/off light cycle with food and water ad libitum. All behavioral studies were performed between 10 a.m. and 5 p.m. Groups of 4-8 rats were treated with peptides at a variety of doses via intravenous (IV), subcutaneous (SC), intracerebroventricular (ICV), intraperitoneal (IP) injection or administered intranasally (IN) using a micropipetor to deliver 25 μL of solution into one nostril. Immediately after treatment, rats were placed into individual polystyrene cages (27 cm long, 16 cm wide, and 25 cm high) for behavioral observation.

MC4-R [5] = target: T2, MC4-R; assay: Competitive inhibition binding assay, 125I-NDP-alpha-MSH, hMC4-R membranes; set-up: expressed in transfected cells

T1 sequence (P33032 whole entry): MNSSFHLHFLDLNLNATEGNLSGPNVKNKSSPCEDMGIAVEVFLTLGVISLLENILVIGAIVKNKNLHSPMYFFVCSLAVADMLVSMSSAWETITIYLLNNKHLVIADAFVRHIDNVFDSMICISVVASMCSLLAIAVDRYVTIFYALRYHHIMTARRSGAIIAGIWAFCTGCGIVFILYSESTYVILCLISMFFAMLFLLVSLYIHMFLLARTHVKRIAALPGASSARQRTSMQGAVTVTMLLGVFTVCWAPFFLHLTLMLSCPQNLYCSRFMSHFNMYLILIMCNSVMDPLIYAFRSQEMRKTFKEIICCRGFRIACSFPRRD

N=C(N)NCCCC(NC(=O)C(Cc1ccc(Cl)cc1)NC(=O)C(COCc1ccccc1)NC(=O)CCCCCCN)C(=O)NC(Cc1c[nH]c2ccccc12)C(N)=O [7′-amino-heptanoyl-Ser(Bzl)-D-Phe(4-Cl)-Arg-Trp-NH2]
percent inhibition of 125I-NDP-alpha-MSH binding, MC5-R (hMC5-R; hMC5-R membranes, 0.4 nM 125I-NDP-alpha-MSH, mean of triplicate, peptide concentration not given): 73% | Ki (hMC5-R; membranes, read-out: Ki MC-5 Mem): 175 nM | HEK-293 (MC4-R) cells Classification (MC4-R [1]): Agonist | average daily body weight gain ([2]; ICV 0.1 nmol): 3 g | average daily body weight lost ([2]; ICV 0.5 nmol): 1 g | average daily body weight lost ([2]; ICV 1.0 nmol): 3 g | time by which animals returned to baseline after dosing ([2]; ICV dosing, FIG. 4): ≤ 48 h | average daily body weight gain ([2]; IP 750 μg/kg): 4 g | average daily body weight gain ([2]; IP 1500 μg/kg): 2 g | average daily body weight lost ([2]; IP 3000 μg/kg): 1 g | percent inhibition of 125I-NDP-alpha-MSH binding, MC3-R (hMC3-R; hMC3-R membranes, 0.4 nM 125I-NDP-alpha-MSH, mean of triplicate, peptide concentration not given): 94% | Ki (hMC3-R; membranes, read-out: Ki MC-3 Mem): 25 nM | Ki (MC1-R): 795 nM | conditioned taste aversion response [3]: no conditioned taste aversion response | conditioned taste aversion response ([3]; listed as 7′-amino-heptanoyl-Ser(Bzl)-D-Phe(4′-Cl)-Arg-Trp-NH2): did not induce a conditioned taste aversion response | penile erection induction [4]: induced erections | percent inhibition of 125I-NDP-alpha-MSH binding, MC4-R (MC4-R [5]; hMC4-R membranes, 0.4 nM 125I-NDP-alpha-MSH, mean of triplicate, peptide concentration not given): 99% | Ki (MC4-R [5]; membranes, read-out: Ki MC-4 Mem): 1 nM
